Assay results taken from publication PMC4971421, “Redox-Dependent Modulation of T-Type Ca^2+ Channels in Sensory Neurons Contributes to Acute Anti-Nociceptive Effect of Substance P” (Antioxidants & Redox Signaling, 2016).

Experiments:
rat hind paw [1] = test: BK-induced nocifensive behavior, pre-injection protocol; type: in vivo; settings: for BK-induced nociception: 5 min before BK 10 nmol/site
Method: Sprague–Dawley rats (body weight, 170–180 g) were grouped randomly and allowed to acclimate for at least 30 min in a transparent observation chamber before the experiment. Animals received a 50-μl intraplantar injection of ST101 (0.001–10 nmol/site), BK (10 nmol/site), RTG (1–10 nmol/site), Z944 (0.05–5 nmol/site), SP (0.5–5 nmol/site), or saline, respectively, into the right hind paw. For evaluation of the acute “spontaneous” pain, animals were video-recorded for 30 min after the injection and protective (“nocifensive”) behavior was analyzed as time spent licking, biting, lifting, and flinching the injected paw. The analyses were performed by an observer who was unaware of treatment allocations. In the pre-injection experiments, the right hind paw of the animal received a pre-injection of 50 μl Z944 (0.05–0.5 nmol/site), RTG (1–10 nmol/site), SP (0.5 nmol/site), Z944 (0.05–0.5 nmol/site)+RTG (1 nmol/site), or saline; 5 min later, on the same paw, the animal received a further 50-μl injection of BK (10 nmol/site) together with the pre-injection drug mix. Nocifensive behavior was analyzed as described earlier.
The in vivo CaV3.2 knock-down was performed as described earlier ([3]) by using the same ODN sequences that were synthesized by SBS Genetech. AS ODNs had the following sequence: […]. The mismatch ODNs of the following sequence were used as a negative control: […]. The mismatch ODN was not complementary to any known nucleotide sequence. ODNs were reconstituted in saline before injection. ODNs (12.5 μg/rat in 10 μl of saline) or saline were injected intrathecally (i.t.) between the L5 and L6 dorsal spinous processes as described earlier ([3], [42]) under isoflurane anesthesia. The treatment was repeated twice daily for 4 days. The pain tests were performed on the next day after the last injection. After behavioral testing, animals were humanly sacrificed; lumbar DRGs were extracted and analyzed for the knock-down efficiency by comparing the Cacna1h mRNA levels in lumbar (L4 to L6) DRGs of the saline-injected, mismatch ODN-injected, and AS ODN-injected animals using RT-PCR. The same Cacna1h and Gapdh primers as in siRNA experiments were used for RT-PCR.

rat hind paw [2] = test: Hargreaves test, paw withdrawal latency to noxious heat; type: in vivo; settings: hind-paw injection 50 μl; 0.005–0.5 nmol/site; 8 min after injection
Method: For measurement of thermal hyperalgesia, the change in the latency of hind-paw withdrawal in response to noxious heat was recorded using the Hargreaves’ plantar method (Ugo Basile) at 8 min after the hind-paw injection of drugs; the heat source was set to 25% of the maximal intensity.

hERG channels = settings: 1 μM; cited from earlier work
[3] = tested on: T-type Ca^2+ channels (LVA Ca^2+ current) in DRG neurons; test: LVA (T-type) Ca2+ current, whole-cell patch clamp, cultured small-diameter DRG neurons; type: cell-based, rat; settings: 1 μM; mean ± SEM, n = 7; SEM
Method: DRG neurons from adult male Sprague–Dawley rats (170–180 g) were dissociated as previously described ([13], [29]) and cultured in DMEM supplemented with GlutaMax I, 10% fetal calf serum, penicillin (50 U/ml), and streptomycin (50 μg/ml) on glass coverslips that were coated with poly-D-lysine for 2–5 days in a humidified incubator (37°C, 5% CO2). No growth factors were added to the culture media. HEK 293 cells were cultured in the same DMEM media; cells were passaged every 2 days. Human NK1 receptor (GenBank accession No. AY462098) complementary DNA (cDNA) was from the Missouri Science and Technology cDNA Resource Center. WtCaV3.1 (GenBank accession No. AF027984), wtCaV3.2 (GenBank accession No. AF051946), CaV3.1Q172H, and CaV3.2H191Q were kindly provided by Dr E. Perez-Reyes (University of Virginia). HEK293 cells were transfected using Lipofectamine 2000 (Invitrogen) according to the manufacturer's instructions. ST101 was synthesized in house; Z944 was from Toronto Research Chemicals; PTX was from Enzo Life Science; and FluoZin-3AM was from Life Technologies. All other chemicals were from Sigma.
All recordings were made using Multiclamp 700B amplifier in combination with pCLAMP 10.4 software (Molecular Devices). Voltage-clamp recordings from DRG neurons were made using whole-cell patch clamp. The standard bath solution contained the following (in mM): 150 TEA-Cl; 2.5 CsCl; 2.5 CaCl2; 10 HEPES; 0.5 MgCl2; and 10 glucose (pH 7.4 adjusted with CsOH). The standard pipette solution contained the following (in mM): 110 CsCl; 3 MgCl2; 10 EGTA; 10 HEPES; 3 Mg-ATP; and 0.6 GTP (pH 7.4 adjusted with CsOH). The access resistance was typically within 4–8 MΩ. T-type calcium currents (LVA) were measured by 50 ms square voltage pulses to −40 mV from a holding potential of −90 mV. HVA currents were measured by 200 ms square voltage pulses to 0 mV from a holding potential of −90 mV.
where y is the current inhibition; A1 and A2 are the maximum and minimum effects, respectively; x is the S9SP concentration; and nH is the Hill coefficient.

N-type VGCCs = settings: 1 μM; cited from earlier work
rat hind paw [4] = test: Cotton swab test (gentle touch); type: in vivo; settings: 50 μl; 0.5 nmol/site; 8 min after injection
Method: For measurement of sensitivity to gentle touch and mechanical hyperalgesia, two methods were used. (i) Cotton swab test was performed as previously described ([53]). Briefly, rats were allowed to acclimate in a cage with a wire mesh bottom for at least 30 min and then were manually probed with a “cotton swab” pulled from a Q-tip (to approximately three times the original size). A swab was applied in a sweeping motion underneath the rats’ paws, and the withdrawal responses were recorded. Five sweeps were applied in each test, with at least 10 s between each sweep; withdrawal score was calculated as a percentage of positive responses. (ii) The von Frey test was performed using a calibrated range of filaments with different bending forces (2, 4, 6, 8, 10, and 15 g; Stoelting Co.). A single filament was applied perpendicularly to the plantar surface of the hind paw for five times, with an interval of 5 s, and it was scored for withdrawal responses. Each force was probed five times, the number of withdrawals out of five trials was counted, and the percentage of withdrawal responses was calculated. Both types of assays were performed 8 min after the hind-paw drug injection.

SMILES: CC(C)(C)NC(=O)CN1CCC(CNC(=O)c2cc(F)cc(Cl)c2)CC1 [Z944, N-[[1-[2-(tert-butylamino)-2-oxoethyl]piperidin-4-yl]methyl]-3-chloro-5-fluorobenzamide]
- nocifensive behavior produced by hind-paw BK injection in saline- and mismatch ODN-injected animals (rat hind paw [1]; 0.5 nmol/site, BK 10 nmol/site): still significantly attenuated
- BK-induced nociception (rat hind paw [1]; pre-injection 0.05 nmol/site): not at 0.05 nmol/site
- BK-induced nociception (rat hind paw [1]; pre-injection 0.5 nmol/site): significantly attenuated
- paw withdrawal latency on radiant heat exposure (rat hind paw [2]): significantly increased
- effect on hERG channels (hERG channels): no significant effect
- inhibition of LVA current [3]: 71.4% ± 2.7%
- effect on N-type VGCCs (N-type VGCCs): no significant effect
- sensitivity to light touch, cotton swab assay (rat hind paw [4]): produced a similar effect
